The subject of one assay is BCRP mRNA. Nature of the assay: BCRP mRNA expression in Caco-2 cells (qRT-PCR). Particulars: 48 h pretreatment, bosentan 20 μM, GA 50 μM, PCA 50 μM, PCE 100 mg/ml. It is filed as cell-based. In general terms: Real-time PCR tracks product formation cycle by cycle.
In the next assay the target is T1, hOCT2 (Homo sapiens, UniProt O15244).
T1 construct: host or cells: S2
T1 sequence (O15244 1-555): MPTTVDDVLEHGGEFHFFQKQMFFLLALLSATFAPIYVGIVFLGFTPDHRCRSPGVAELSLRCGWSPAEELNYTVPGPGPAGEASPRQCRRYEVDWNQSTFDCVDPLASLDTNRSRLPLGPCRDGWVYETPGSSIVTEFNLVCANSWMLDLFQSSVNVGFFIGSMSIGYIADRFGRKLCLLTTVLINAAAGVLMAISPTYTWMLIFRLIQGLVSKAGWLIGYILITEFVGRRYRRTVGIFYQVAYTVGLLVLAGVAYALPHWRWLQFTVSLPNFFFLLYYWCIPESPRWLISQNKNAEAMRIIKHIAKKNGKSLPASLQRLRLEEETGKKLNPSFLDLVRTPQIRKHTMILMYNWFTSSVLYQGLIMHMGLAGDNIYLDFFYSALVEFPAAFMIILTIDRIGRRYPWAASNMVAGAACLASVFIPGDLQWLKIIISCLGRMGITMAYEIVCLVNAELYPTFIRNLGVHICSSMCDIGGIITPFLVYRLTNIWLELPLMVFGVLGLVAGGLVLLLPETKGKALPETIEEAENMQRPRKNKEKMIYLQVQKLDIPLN
Nature of the assay: Inhibition of hOCT2-mediated uptake of 14C-TEA in hOCT2-S2 cells. It is filed as cell-based. As to conditions: 14C-TEA 5 µM. The source says: Considering the relative exposure characteristics, GA and PCA were selected as PK-marker and Q-marker components of PCE in previous studies ([Ma et al., 2015]; [Ma et al., 2016]; [Li et al., 2021b]). In this study, we investigated the concentration-dependent inhibitions of GA and PCA on multiple transporters, including OAT1, OAT3, OCT2, MDR1, and BCRP. Stably expressing cell lines of hOAT1-MDCK, hOAT3-MDCK, hOCT2-S2, hMDR1-MDCK, hBCRP-MDCK, and their mock cells were obtained from Japan Fuji Biomedical Co., Ltd. The cells were maintained in DMEM (Sigma) supplemented with 10% FCS, 1% non-essential amino acids (Sigma), and 2% L-glutamine. The medium for the Transwell® plates (Corning Costar, Cambridge, MA, United States) was supplemented with 0.1% gentamicin. […]
Briefly, the hOAT1-MDCK, hOAT3-MDCK, and hOCT2-S2 cells were trypsinized and suspended in the culture medium to provide a density of 1.5 × 10^5 cells/ml. […] The radioactive intensity of ^14C-PAH, ^3H-ES, and ^14C-TEA was measured using a Tri-Carb 2910TR scintillator (PerkinElmer, United States). Fluorescence was measured at 485 nm (excitation) and 546 nm (emission) for rhodamine 123, and 425 nm (excitation) and 528 nm (emission) for lucifer yellow. IC50 values were determined by employing GraphPad Prism 9.

Method for BCRP mRNA: After the incubation period, cells were harvested from the Transwell inserts for RNA extraction. […] Real-time quantitative PCR (qRT-PCR) was performed on an ABI Prism 7900HT Sequence Detection System (Applied Biosystems, Foster City, CA, United States) for the analysis of MDR1 and BCRP genes. Primers of housekeeping gene β-actin was used as internal controls. […] The relative gene expression levels were determined using the comparative CT method (ΔΔCT method). The cut-off CT was set at 35 cycles for all analyses. An arbitrary classification system was assigned to the data, designating relative expression levels >2 as high mRNA expression, levels between 2 and 1 as moderate mRNA expression, levels between 1 and 0.1 as low mRNA expression and levels <0.1 as unexpressed.

For `O=C(O)c1ccc(O)c(O)c1` [PCA, protocatechuic acid], the “increase of BCRP mRNA expression” value in the assay on BCRP mRNA came out at 3.33 fold. Besides, on hOCT2, the IC50 was 107 µM.

In general, IC50 refers to the concentration that inhibits the measured activity by half. Low values mean greater potency, high ones weaker potency.

The record behind these values is article PMC9640990 (Frontiers in Pharmacology, 2022).
